Laboratory results from US8901118B2, “Compounds and methods for kinase modulation, and indications therefor” (Plexxikon Inc., priority 2010, dated 2014).

What was measured:
BCR-FMS BaF3 cells = target: T1, BCR-FMS BaF3 cells (Homo sapiens, UniProt P07333); assay: BaF3 BCR-FMS cell proliferation assay (ATPlite); assay type: cell-based; conditions: read-out: Inhibition of Cell Proliferation IC50, BCR/BaF3 Fms
T1 construct: fused on or other part: P11274 (Breakpoint cluster region protein)
T1 sequence (P07333 582-910): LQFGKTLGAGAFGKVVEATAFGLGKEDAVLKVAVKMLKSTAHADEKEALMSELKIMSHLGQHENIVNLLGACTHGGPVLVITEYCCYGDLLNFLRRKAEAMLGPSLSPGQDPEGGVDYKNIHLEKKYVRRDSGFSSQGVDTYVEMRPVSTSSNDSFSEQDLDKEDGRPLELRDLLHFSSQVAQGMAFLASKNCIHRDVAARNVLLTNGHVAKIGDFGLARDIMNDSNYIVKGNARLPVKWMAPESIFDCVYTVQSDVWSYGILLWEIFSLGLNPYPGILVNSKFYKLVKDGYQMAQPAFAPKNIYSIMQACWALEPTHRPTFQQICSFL
Outline: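 Cells are plated overnight: BaF3 at 10,000/well in G418 medium without WEHI/IL-3, MV-4-11 at 25,000/well in IMDM with 10% FBS. An 8-point 1:3 compound titration (10 μM top) is then added, and plates are incubated 3 days at 37 °C before ATPlite readout and IC50 determination.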

CYP2C19 = CYP2C19 (Homo sapiens, UniProt P33261); assay: CYP2C19 inhibition (fluorescent substrate CEC); assay type: in vitro ADME; conditions: read-out: Cyp IC50 2C19
Outline: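 IC50 derives from metabolite fluorescence against compound concentration, read at excitation 409 nm and emission 460 nm for CYP1A2/2C19 or 530 nm for CYP2C9/2D6. Incubations ran at 37° C for 15 min (1A2), 45 min (2C9) or 30 min (2C19, 2D6), after serial dilution into NADPH cofactor mix and 10 min preincubation.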

CYP2C19, sequence (P33261 whole entry): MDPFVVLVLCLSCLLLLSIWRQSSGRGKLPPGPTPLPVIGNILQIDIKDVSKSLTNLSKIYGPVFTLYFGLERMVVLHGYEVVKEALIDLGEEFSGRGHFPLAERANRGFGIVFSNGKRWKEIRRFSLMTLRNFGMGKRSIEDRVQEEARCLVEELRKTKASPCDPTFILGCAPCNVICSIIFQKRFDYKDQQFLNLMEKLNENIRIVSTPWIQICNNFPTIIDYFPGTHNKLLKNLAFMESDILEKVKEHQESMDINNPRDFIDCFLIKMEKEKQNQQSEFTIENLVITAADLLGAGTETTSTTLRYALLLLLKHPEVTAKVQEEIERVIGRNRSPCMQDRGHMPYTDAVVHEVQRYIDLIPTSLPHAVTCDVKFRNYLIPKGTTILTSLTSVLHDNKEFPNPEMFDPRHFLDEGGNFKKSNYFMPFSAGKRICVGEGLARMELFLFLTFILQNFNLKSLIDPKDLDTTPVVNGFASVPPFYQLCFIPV

| SMILES | IC50 (BCR-FMS BaF3 cells) [µM] | IC50 (CYP2C19) [µM] |
| --- | --- | --- |
| CCc1ccc(Nc2ccc(Cc3c[nH]c4ncnc(OCCOC)c34)c(F)n2)cn1 [Compound P-4016, (6-Ethyl-pyridin-3-yl)-{6-fluoro-5-[4-(2-methoxy-ethoxy)-7H-pyrrolo[2,3-d]pyrimidin-5-ylmethyl]-pyridin-2-yl}-amine] | < 0.01 | > 10 |
| CCOc1ncnc2[nH]cc(Cc3ccc(Nc4ccc(C)nc4)nc3F)c12 [Compound P-4017, [5-(4-Ethoxy-7H-pyrrolo[2,3-d]pyrimidin-5-ylmethyl)-6-fluoro-pyridin-2-yl]-(6-methyl-pyridin-3-yl)-amine] | < 0.01 | > 10 |
| CCOc1ncnc2[nH]cc(Cc3ccc(Nc4ccc(OC)nc4)nc3F)c12 [Compound P-4018, [5-(4-Ethoxy-7H-pyrrolo[2,3-d]pyrimidin-5-ylmethyl)-6-fluoro-pyridin-2-yl]-(6-methoxy-pyridin-3-yl)-amine] | < 0.01 | < 5 |
| COCCOc1ncnc2[nH]cc(Cc3ccc(Nc4ccc(OC)nc4)nc3F)c12 [Compound P-4019, {6-Fluoro-5-[4-(2-methoxy-ethoxy)-7H-pyrrolo[2,3-d]pyrimidin-5-ylmethyl]-pyridin-2-yl}-(6-methoxy-pyridin-3-yl)-amine] | < 0.01 | 5 to 10 |
| COc1ccc(Nc2ccc(C(=O)c3c[nH]c4ncnc(C5CC5)c34)c(F)n2)cn1 [Compound P-4022, (4-cyclopropyl-7H-pyrrolo[2,3-d]pyrimidin-5-yl)-[2-fluoro-6-(6-methoxy-pyridin-3-ylamino)-pyridin-3-yl]-methanone] | < 0.1 | 5 to 10 |
| COc1ccc(Nc2ccc(Cc3c[nH]c4ncnc(C5CC5)c34)c(F)n2)cn1 [Compound P-4023, [5-(4-cyclopropyl-7H-pyrrolo[2,3-d]pyrimidin-5-ylmethyl)-6-fluoro-pyridin-2-yl]-(6-methoxy-pyridin-3-yl)-amine] | < 0.01 | < 5 |
| CCOc1ccc(Nc2ccc(C(=O)c3c[nH]c4ncnc(OC)c34)c(F)n2)cn1 [Compound P-4024, [6-(6-Ethoxy-pyridin-3-ylamino)-2-fluoro-pyridin-3-yl]-(4-methoxy-7H-pyrrolo[2,3-d]pyrimidin-5-yl)-methanone] | < 0.1 | > 10 |
| CCOc1ncnc2[nH]cc(C(=O)c3ccc(Nc4ccc(OC)nc4)nc3F)c12 [Compound P-4025, (4-Ethoxy-7H-pyrrolo[2,3-d]pyrimidin-5-yl)-[2-fluoro-6-(6-methoxy-pyridin-3-ylamino)-pyridin-3-yl]-methanone] | < 0.1 | 5 to 10 |
| CCc1ccc(Nc2ccc(Cc3c[nH]c4ncnc(C5CC5)c34)c(F)n2)cn1 [Compound P-4028, [5-(4-Cyclopropyl-7H-pyrrolo[2,3-d]pyrimidin-5-ylmethyl)-6-fluoro-pyridin-2-yl]-(6-ethyl-pyridin-3-yl)-amine] | < 0.01 | 5 to 10 |
| CCc1ccc(Nc2ccc(C(=O)c3c[nH]c4ncnc(C5CC5)c34)c(F)n2)cn1 [Compound P-4029, (4-Cyclopropyl-7H-pyrrolo[2,3-d]pyrimidin-5-yl)-[6-(6-ethyl-pyridin-3-ylamino)-2-fluoro-pyridin-3-yl]-methanone] | < 0.1 | > 10 |
| Cc1ccc(Nc2ccc(Cc3c[nH]c4ncnc(C5CC5)c34)c(F)n2)cn1 [Compound P-4030, [5-(4-Cyclopropyl-7H-pyrrolo[2,3-d]pyrimidin-5-ylmethyl)-6-fluoro-pyridin-2-yl]-(6-methyl-pyridin-3-yl)-amine] | < 0.01 | 5 to 10 |
| Cc1ccc(Nc2ccc(C(=O)c3c[nH]c4ncnc(C5CC5)c34)c(F)n2)cn1 [Compound P-4031, (4-Cyclopropyl-7H-pyrrolo[2,3-d]pyrimidin-5-yl)-[2-fluoro-6-(6-methyl-pyridin-3-ylamino)-pyridin-3-yl]-methanone] | < 0.1 | > 10 |
| CCn1cc(Nc2ccc(Cc3c[nH]c4ncnc(C5CC5)c34)c(F)n2)cn1 [Compound P-4036, [5-(4-Cyclopropyl-7H-pyrrolo[2,3-d]pyrimidin-5-ylmethyl)-6-fluoro-pyridin-2-yl]-(1-ethyl-1H-pyrazol-4-yl)-amine] | < 0.1 | 5 to 10 |
| CCn1cc(Nc2ccc(C(=O)c3c[nH]c4ncnc(C5CC5)c34)c(F)n2)cn1 [Compound P-4037, (4-Cyclopropyl-7H-pyrrolo[2,3-d]pyrimidin-5-yl)-[6-(1-ethyl-1H-pyrazol-4-ylamino)-2-fluoro-pyridin-3-yl]-methanone] | < 0.1 | > 10 |
| Fc1nc(NC2CCC(F)(F)CC2)ccc1Cc1c[nH]c2ncnc(NCC(F)(F)F)c12 [Compound P-4128, 5-[[6-[(4,4-difluorocyclohexyl)amino]-2-fluoro-3-pyridyl]methyl]-N-(2,2,2-trifluoroethyl)-7H-pyrrolo[2,3-d]pyrimidin-4-amine] | < 0.1 | > 10 |
| Fc1nc(NC2CCC(F)(F)CC2)ccc1Cc1c[nH]c2ncnc(NC3CC3)c12 [Compound P-4129, N-cyclopropyl-5-[[6-[(4,4-difluorocyclohexyl)amino]-2-fluoro-3-pyridyl]methyl]-7H-pyrrolo[2,3-d]pyrimidin-4-amine] | < 0.1 | > 10 |
| Fc1nc(Nc2ccc(C3CC3)nc2)ccc1Cc1c[nH]c2ncnc(NCC(F)(F)F)c12 [Compound P-4130, 5-[[6-[(6-cyclopropyl-3-pyridyl)amino]-2-fluoro-3-pyridyl]methyl]-N-(2,2,2-trifluoroethyl)-7H-pyrrolo[2,3-d]pyrimidin-4-amine] | < 0.01 | < 5 |
